Results: US6395896B2, “Pyridazine derivatives, manufacturing method and related composition” (Shiseido Co., Ltd., priority 1999, dated 2002)

What was measured:
[1] = Perfume stabilization effect (photostabilizer, sunlight exposure, judgement by perfumier); set-up: key to Sunlight exposure (80 MJ) Smell evaluation / Sunlight exposure (80 MJ) evaluation: A: No change; B: No almost change; C: Yes change
Description: Next, the photostabilization effect for each perfume was studied by the following evaluation formulation.
Each test sample was prepared. Change of smell of sample exposed to sunlight (80 MJ) was observed (judgement by perfumier).

[2] = Stability test in case of including UV shielding agent of inorganic powder (sun-screen cream); type: physicochemical; settings: sun-screen cream with inorganic powder, 10.0 wt % ultraviolet absorbent; 2 months at 50° C.; visual observation
Description: The sun screen cream of the following formulation was manufactured. These were preserved for 2 months at 50° C. By visual observation of discoloration, the inventors have checked stability when using an UV shielding agent of inorganic powder which is included as external skin preparation for the ultraviolet rays defense.
After (2) was added to (1) and was swelled sufficiently, (3) to (11) was added thereto and was mixed with heating. The mixture was sufficiently dissolved with dispersing. This dispersed liquid was kept at 70° C. After this dispersed liquid was emulsified homogeneously by homomixer with adding a mixture of (12) to (15) gradually, which was cooled to 30° C. with stirring well to obtain sun screen.

[3] = Perfume stabilization effect (sequestering agent combination); set-up: key to Sunlight exposure (80 MJ) Smell evaluation: A: No change; B: No almost change; C: Yes change; settings: for smell change: with a sequestering agent, compared with compositions without; for Sunlight exposure (80 MJ) Smell evaluation: amounts wt %
Description: Next, for combinations with sequestering agent, photostabilization effect for each perfume was studied by the following evaluation formulation.
Each test sample was prepared. Smell change of samples exposed to sunlight (80 MJ) was observed (judgement by perfumier).

## Oc1nncc(N2CCOCC2)c1N1CCOCC1 [4,5-Dimorpholino-3-hydroxypyridazine]
[1]; synthetic perfume α-Hexyl cinnamic aldehyde, photostabilizer amount 0.03 wt %
  Sunlight exposure (80 MJ) Smell evaluation: A
[1]; synthetic perfume β-Caryophyllene, photostabilizer amount 0.01 wt %
  Sunlight exposure (80 MJ) Smell evaluation: A
[1]; synthetic perfume β-Ionone, photostabilizer amount 0.05 wt %
  Sunlight exposure (80 MJ) Smell evaluation: A
[1]; synthetic perfume β-Phenylethyl alcohol, photostabilizer amount 0.03 wt %
  Sunlight exposure (80 MJ) Smell evaluation: A
[1]; synthetic perfume γ-Undecalactone, photostabilizer amount 0.1 wt %
  Sunlight exposure (80 MJ) Smell evaluation: A
[1]; synthetic perfume, summary of Table 18
  change of smell: very small in comparison with other photostabilizers
other
  melting point: 256 to 257 °C (dec.)
[2]
  Discoloration: No
[3]; base perfume, Table 29
  smell change: very small
[3]; natural perfume Bergamot oil 0.03, photostabilizer 0.05 + Trisodium ethylenediamine tetraacetate 0.03
  Sunlight exposure (80 MJ) Smell evaluation: A
[3]; natural perfume Bergamot oil 0.03, photostabilizer 0.05, no sequestering agent
  Sunlight exposure (80 MJ) Smell evaluation: B
[3]; natural perfume Jasmine oil 0.03, photostabilizer 0.02 + Sodium metaphosphate 0.03
  Sunlight exposure (80 MJ) Smell evaluation: A
[3]; natural perfume Jasmine oil 0.03, photostabilizer 0.02, no sequestering agent
  Sunlight exposure (80 MJ) Smell evaluation: B
[3]; natural perfume Lavender oil 0.03, photostabilizer 0.02 + Trisodium hydroxyethyl ethylenediamine triacetate 0.03
  Sunlight exposure (80 MJ) Smell evaluation: A
[3]; natural perfume Lavender oil 0.03, photostabilizer 0.02, no sequestering agent
  Sunlight exposure (80 MJ) Smell evaluation: B
[3]; natural perfume Musk oil 0.03, photostabilizer 0.1 + Sodium metaphosphate 0.03
  Sunlight exposure (80 MJ) Smell evaluation: A
[3]; natural perfume Musk oil 0.03, photostabilizer 0.1, no sequestering agent
  Sunlight exposure (80 MJ) Smell evaluation: B
[3]; natural perfume Orange oil 0.03, photostabilizer 0.05 + Sodium metaphosphate 0.03
  Sunlight exposure (80 MJ) Smell evaluation: A
[3]; natural perfume Orange oil 0.03, photostabilizer 0.05, no sequestering agent
  Sunlight exposure (80 MJ) Smell evaluation: B
[3]; natural perfume Peppermint oil 0.03, photostabilizer 0.01 + Trisodium ethylenediamine triacetate 0.03
  Sunlight exposure (80 MJ) Smell evaluation: A
[3]; natural perfume Peppermint oil 0.03, photostabilizer 0.01, no sequestering agent
  Sunlight exposure (80 MJ) Smell evaluation: B
[3]; natural perfume Rose oil 0.03, photostabilizer 0.02 + Trisodium ethylenediamine tetraacetate 0.03
  Sunlight exposure (80 MJ) Smell evaluation: A
[3]; natural perfume Rose oil 0.03, photostabilizer 0.02, no sequestering agent
  Sunlight exposure (80 MJ) Smell evaluation: B
[3]; natural perfume Ylang ylang oil 0.03, photostabilizer 0.02 + Trisodium hydroxyethyl ethylenediamine triacetate 0.03
  Sunlight exposure (80 MJ) Smell evaluation: A
[3]; natural perfume Ylang ylang oil 0.03, photostabilizer 0.02, no sequestering agent
  Sunlight exposure (80 MJ) Smell evaluation: B
[3]; natural perfume, Table 27
  smell change: very small
[3]; perfume Aldehyde 0.03, photostabilizer 0.05 + Trisodium hydroxyethyl ethylenediamine triacetate 0.03
  Sunlight exposure (80 MJ) Smell evaluation: A
[3]; perfume Aldehyde 0.03, photostabilizer 0.05, no sequestering agent
  Sunlight exposure (80 MJ) Smell evaluation: B
[3]; perfume Animal 0.03, photostabilizer 0.1 + Trisodium ethylenediamine tetraacetate 0.03
  Sunlight exposure (80 MJ) Smell evaluation: A
[3]; perfume Animal 0.03, photostabilizer 0.1, no sequestering agent
  Sunlight exposure (80 MJ) Smell evaluation: B
[3]; perfume Fruity 0.03, photostabilizer 0.03 + Sodium metaphosphate 0.03
  Sunlight exposure (80 MJ) Smell evaluation: A
[3]; perfume Fruity 0.03, photostabilizer 0.03, no sequestering agent
  Sunlight exposure (80 MJ) Smell evaluation: B
[3]; perfume Green 0.03, photostabilizer 0.01 + Trisodium hydroxyethyl ethylenediamine triacetate 0.03
  Sunlight exposure (80 MJ) Smell evaluation: A
[3]; perfume Green 0.03, photostabilizer 0.01, no sequestering agent
  Sunlight exposure (80 MJ) Smell evaluation: B
[3]; perfume Jasmine 0.03, photostabilizer 0.02 + Trisodium ethylenediamine tetraacetate 0.03
  Sunlight exposure (80 MJ) Smell evaluation: A
[3]; perfume Jasmine 0.03, photostabilizer 0.02, no sequestering agent
  Sunlight exposure (80 MJ) Smell evaluation: B
[3]; perfume Muguet 0.03, photostabilizer 0.02 + Sodium metaphosphate 0.03
  Sunlight exposure (80 MJ) Smell evaluation: A
[3]; perfume Muguet 0.03, photostabilizer 0.02, no sequestering agent
  Sunlight exposure (80 MJ) Smell evaluation: B
[3]; perfume Oriental 0.03, photostabilizer 0.01 + Trisodium ethylenediamine tetraacetate 0.03
  Sunlight exposure (80 MJ) Smell evaluation: A
[3]; perfume Oriental 0.03, photostabilizer 0.01, no sequestering agent
  Sunlight exposure (80 MJ) Smell evaluation: B
[3]; perfume Rose 0.03, photostabilizer 0.02 + Trisodium hydroxyethyl ethylenediamine triacetate 0.03
  Sunlight exposure (80 MJ) Smell evaluation: A
[3]; perfume Rose 0.03, photostabilizer 0.02, no sequestering agent
  Sunlight exposure (80 MJ) Smell evaluation: B
[3]; synthetic perfume Benzyl benzoate 0.03, photostabilizer 0.02 + Trisodium hydroxyethyl ethylenediamine triacetate 0.03
  Sunlight exposure (80 MJ) Smell evaluation: A
[3]; synthetic perfume Benzyl benzoate 0.03, photostabilizer 0.02, no sequestering agent
  Sunlight exposure (80 MJ) Smell evaluation: B
[3]; synthetic perfume Citral 0.03, photostabilizer 0.01 + Trisodium hydroxyethyl ethylenediamine triacetate 0.03
  Sunlight exposure (80 MJ) Smell evaluation: A
[3]; synthetic perfume Citral 0.03, photostabilizer 0.01, no sequestering agent
  Sunlight exposure (80 MJ) Smell evaluation: B
[3]; synthetic perfume Lilial 0.03, photostabilizer 0.1 + Sodium metaphosphate 0.03
  Sunlight exposure (80 MJ) Smell evaluation: A
[3]; synthetic perfume Lilial 0.03, photostabilizer 0.1, no sequestering agent
  Sunlight exposure (80 MJ) Smell evaluation: B
[3]; synthetic perfume Limonene 0.03, photostabilizer 0.02 + Trisodium hydroxyethyl ethylenediamine triacetate 0.03
  Sunlight exposure (80 MJ) Smell evaluation: A
[3]; synthetic perfume Limonene 0.03, photostabilizer 0.02, no sequestering agent
  Sunlight exposure (80 MJ) Smell evaluation: B
[3]; synthetic perfume Oranthiol 0.03, photostabilizer 0.05 + Sodium metaphosphate 0.03
  Sunlight exposure (80 MJ) Smell evaluation: A
[3]; synthetic perfume Oranthiol 0.03, photostabilizer 0.05, no sequestering agent
  Sunlight exposure (80 MJ) Smell evaluation: B
[3]; synthetic perfume Rose oxide 0.03, photostabilizer 0.05 + Trisodium ethylenediamine tetraacetate 0.03
  Sunlight exposure (80 MJ) Smell evaluation: A
[3]; synthetic perfume Rose oxide 0.03, photostabilizer 0.05, no sequestering agent
  Sunlight exposure (80 MJ) Smell evaluation: B
[3]; synthetic perfume cis-3-Hexenol 0.03, photostabilizer 0.02 + Trisodium ethylenediamine tetraacetate 0.03
  Sunlight exposure (80 MJ) Smell evaluation: A
[3]; synthetic perfume cis-3-Hexenol 0.03, photostabilizer 0.02, no sequestering agent
  Sunlight exposure (80 MJ) Smell evaluation: B
[3]; synthetic perfume β-ionone 0.03, photostabilizer 0.01 + Trisodium ethylenediamine tetraacetate 0.03
  Sunlight exposure (80 MJ) Smell evaluation: A
[3]; synthetic perfume β-ionone 0.03, photostabilizer 0.01, no sequestering agent
  Sunlight exposure (80 MJ) Smell evaluation: B
[3]; synthetic perfume, Table 28
  smell change: very small
